Among the test systems are TK-10 renal; HCT-116 colon; MDA-MB-435; OVCAR-4 ovarian; BT-549 breast; U251 CNS; IGROV1 ovarian; K-562 leukemia; SF-539 CNS; HL-60(TB) leukemia.
Holding throughout (assay): inhibition of tumour cell growth, NCI panel, 48 h

“And” between values parts separate entries of the source, which are not always exact repeats. Equal entries are not always repeated.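 Tested at 5 concentrations; 48 h exposure; 96-well plates; endpoints linearly interpolated, else capped at highest concentration. The concentration for 50% growth inhibition is given as GI50. TGI denotes the concentration required for complete inhibition of growth.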 Some results are limits rather than exact numbers.

`CC(F)(F)c1cc(F)ccc1-c1sc2cc(O)ccc2c1Oc1ccc(/C=C/C(=O)O)cc1`: the GI50 in the assay with TK-10 renal was 22 µM; in the assay on HCT-116 colon it was 8.48 µM; in the assay with MDA-MB-435 it was 2.23 µM; with OVCAR-4 ovarian it was 12.1 µM; with BT-549 breast it was 6.46 µM; in the assay on U251 CNS it was 6.45 µM. Moreover, the GI50 is 11.6 µM in the assay on IGROV1 ovarian, 6.7 µM in the assay on K-562 leukemia, 5.95 µM in the assay with SF-539 CNS and 4.44 µM with HL-60(TB) leukemia. The TGI in the assay with TK-10 renal is more than 100 µM; with HCT-116 colon, 22.1 µM; with MDA-MB-435, 5.51 µM; in the assay on OVCAR-4 ovarian, 33.2 µM; in the assay on BT-549 breast it was 27 µM; in the assay on U251 CNS, 23 µM. The TGI turned out to be 29 µM in the assay on IGROV1 ovarian, 79.2 µM in the assay with K-562 leukemia, 21 µM in the assay with SF-539 CNS and 23.8 µM with HL-60(TB) leukemia.
In the case of `CC[C@@H](C)[C@H]([C@H](CC(=O)N1CCC[C@@H]1[C@@H](OC)[C@H](C)C(=O)N[C@H](Cc1ccccc1)c1nccs1)OC)N(C)C(=O)[C@H](NC(=O)[C@@H](C(C)C)N(C)C)C(C)C`, the GI50 in the assay with TK-10 renal is 0.31 µM; with OVCAR-4 ovarian it was 1.2 µM and 0.588 µM; in the assay with BT-549 breast, 8.48e-05 µM; with IGROV1 ovarian it was 0.000425 µM; in the assay on K-562 leukemia, 0.000425 µM; in the assay with HL-60(TB) leukemia it was 0.000425 µM. In addition, the TGI was 98.3 µM in the assay on TK-10 renal; 0.00467 µM in the assay on HCT-116 colon; 2.94e-06 µM in the assay on MDA-MB-435; more than 100 µM in the assay on BT-549 breast; 0.00143 µM in the assay with U251 CNS; 2.86 µM and > 4.64 µM with K-562 leukemia. In addition, the TGI in the assay with SF-539 CNS is 0.00161 µM.
For the compound `C[C@@]1(c2ncncc2F)NC(=O)c2cc(-c3cn[nH]c3)ccc21`, the GI50 in the assay on TK-10 renal was 10.9 µM; with HCT-116 colon, 5.48 µM; with MDA-MB-435, 19.9 µM; with OVCAR-4 ovarian, 38.5 µM; in the assay on BT-549 breast, 11.8 µM; in the assay with U251 CNS, 29.4 µM. In addition, the GI50 is 21.4 µM in the assay with IGROV1 ovarian, 46.8 µM with K-562 leukemia, 5.61 µM in the assay with SF-539 CNS and 15.8 µM in the assay on HL-60(TB) leukemia. For the same compound, the TGI with TK-10 renal is 58.3 µM; in the assay on HCT-116 colon, more than 100 µM; in the assay on MDA-MB-435, more than 100 µM; in the assay with OVCAR-4 ovarian, more than 100 µM; in the assay on BT-549 breast, 49.3 µM; in the assay with U251 CNS, more than 100 µM. Moreover, the TGI with IGROV1 ovarian is more than 100 µM; with K-562 leukemia, more than 100 µM; with SF-539 CNS, 32.7 µM; in the assay on HL-60(TB) leukemia it was 60.4 µM.
On to `CS(=O)c1ccc(-c2nc(-c3ccc(F)cc3)c(-c3ccncc3)[nH]2)cc1` (centres undefined), for which the GI50 was 24.3 µM in the assay with TK-10 renal; 20.1 µM in the assay on HCT-116 colon; 20.7 µM in the assay on MDA-MB-435; 39.7 µM in the assay on OVCAR-4 ovarian; 21 µM in the assay on BT-549 breast; 38 µM in the assay with U251 CNS. The GI50 was 21.9 µM in the assay on IGROV1 ovarian, 25 µM in the assay with K-562 leukemia, 44.8 µM in the assay with SF-539 CNS and 23 µM with HL-60(TB) leukemia. Besides, the TGI in the assay on TK-10 renal is more than 78.1 µM; in the assay on HCT-116 colon it was more than 63.8 µM; with MDA-MB-435, more than 100 µM; in the assay with OVCAR-4 ovarian, more than 100 µM; in the assay with BT-549 breast it was 72.4 µM; in the assay with U251 CNS it was more than 100 µM. The TGI was more than 85.5 µM with IGROV1 ovarian, more than 100 µM in the assay with K-562 leukemia, more than 100 µM in the assay on SF-539 CNS and 53.1 µM with HL-60(TB) leukemia.
On to `O=C(Nc1cccc2cccnc12)c1ccc(N2C(=O)[C@@H]3[C@H](C2=O)[C@@H]2C=C[C@H]3C2)cc1`, for which the GI50 in the assay on TK-10 renal was 4.13 µM; in the assay on HCT-116 colon, 35.8 µM; in the assay with MDA-MB-435, 32.1 µM; in the assay with OVCAR-4 ovarian it was 3.26 µM; in the assay with BT-549 breast, 16.3 µM; in the assay with U251 CNS it was 16 µM. The GI50 in the assay on IGROV1 ovarian was 32.7 µM; in the assay with K-562 leukemia, 24.5 µM; in the assay on SF-539 CNS, 77.8 µM; with HL-60(TB) leukemia it was 21 µM. Moreover, the TGI in the assay on TK-10 renal was more than 100 µM; in the assay with HCT-116 colon, more than 100 µM; with MDA-MB-435, more than 100 µM; in the assay on OVCAR-4 ovarian, 48.6 µM; in the assay with BT-549 breast it was more than 83.3 µM; with U251 CNS, more than 100 µM. The TGI is more than 100 µM in the assay on IGROV1 ovarian, more than 100 µM in the assay with K-562 leukemia, more than 100 µM in the assay with SF-539 CNS and 59 µM in the assay with HL-60(TB) leukemia.
As for `O=C(c1ccco1)c1c(C(F)(F)F)nc2cc(C(F)(F)F)ccc2[n+]1[O-]`, the GI50 is 28.6 µM with TK-10 renal; 33.4 µM with HCT-116 colon; more than 100 µM in the assay with MDA-MB-435; more than 100 µM in the assay on OVCAR-4 ovarian; 57.8 µM in the assay with BT-549 breast; 34.7 µM with U251 CNS. For the same compound, the GI50 is 26.5 µM with IGROV1 ovarian, 38.3 µM in the assay on K-562 leukemia, 21.2 µM in the assay on SF-539 CNS and more than 100 µM with HL-60(TB) leukemia. Also, the TGI in the assay with TK-10 renal, in the assay with HCT-116 colon, in the assay on MDA-MB-435, in the assay on OVCAR-4 ovarian, in the assay on BT-549 breast and in the assay with U251 CNS was more than 100 µM in each case. For the same compound, the TGI with IGROV1 ovarian is 90.6 µM; in the assay with K-562 leukemia, more than 100 µM; in the assay on SF-539 CNS, 54.2 µM; in the assay on HL-60(TB) leukemia, more than 100 µM.
On to `CC12CCc3ccccc3C1=Nc1ccccc12` (centres undefined), for which the TGI in the assay with TK-10 renal is more than 100 µM; with HCT-116 colon, more than 100 µM; in the assay with MDA-MB-435 it was 82.6 µM; in the assay on OVCAR-4 ovarian, more than 100 µM; in the assay on BT-549 breast, 95.6 µM; in the assay with U251 CNS it was more than 100 µM. Besides, the TGI in the assay with IGROV1 ovarian was more than 100 µM; with K-562 leukemia it was more than 100 µM; with SF-539 CNS it was 78.5 µM; with HL-60(TB) leukemia it was 76.6 µM.
On to `O=C1C=CN(C2OC(CO)C(O)C2O)C(=O)C1` (centres undefined), for which the TGI with TK-10 renal was more than 2500 µM; in the assay on HCT-116 colon, 625 µM and > 2500 µM; with MDA-MB-435, more than 2500 µM; with OVCAR-4 ovarian it was more than 2500 µM; with BT-549 breast, more than 2500 µM; in the assay with U251 CNS it was 625 µM and > 2500 µM. Moreover, the TGI was 625 µM and > 2210 µM in the assay on IGROV1 ovarian; more than 2500 µM in the assay with K-562 leukemia; 625 µM and 1800 µM with SF-539 CNS; 625 µM and > 2500 µM in the assay on HL-60(TB) leukemia. In addition, the GI50 in the assay on HCT-116 colon is 2.54 µM; in the assay with OVCAR-4 ovarian, > 625 µM and 953 µM; with U251 CNS, 298 µM and 289 µM; in the assay with IGROV1 ovarian, 77 µM; with SF-539 CNS it was 146 µM; in the assay on HL-60(TB) leukemia, 6.25 µM.

The values are drawn from PubChem BioAssay (NCI).
